Patent publication US20240109917A1 (ACTELION PHARMACEUTICALS LTD, priority 2020, published 2024)

Experiments:
[1] = biological target: His6-TEV-PDGFRβ (557-1016) (Homo sapiens (Human), UniProt P09619); test: PDGFRβ HTRF Assay; assay type: biochemical; settings: read-out: PDGFR HTRF IC50
Method in brief: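 Human PDGFRβ (557-1016) pre-incubated with compound for 30 min at RT in pH 7.5 HEPES/MgCl2/EGTA/Brij-35/DTT buffer. Reaction started with ATP and TK-biotin peptide, run 3 h at RT, then quenched with EDTA-containing Eu-cryptate antibody/streptavidin-XL665. HTRF 665/620 nm ratio read after 60 min; percent inhibition relative to DMSO and 10 μM imatinib controls.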

[2] = biological target: Tb-labeled inactive PDGFRβ (Homo sapiens (Human), UniProt P09619); test: PDGFRβ LanthaScreen Assay; assay type: binding; settings: read-out: PDGFR Lantha IC50
Tb-labeled inactive PDGFRβ, sequence (P09619 33-1106): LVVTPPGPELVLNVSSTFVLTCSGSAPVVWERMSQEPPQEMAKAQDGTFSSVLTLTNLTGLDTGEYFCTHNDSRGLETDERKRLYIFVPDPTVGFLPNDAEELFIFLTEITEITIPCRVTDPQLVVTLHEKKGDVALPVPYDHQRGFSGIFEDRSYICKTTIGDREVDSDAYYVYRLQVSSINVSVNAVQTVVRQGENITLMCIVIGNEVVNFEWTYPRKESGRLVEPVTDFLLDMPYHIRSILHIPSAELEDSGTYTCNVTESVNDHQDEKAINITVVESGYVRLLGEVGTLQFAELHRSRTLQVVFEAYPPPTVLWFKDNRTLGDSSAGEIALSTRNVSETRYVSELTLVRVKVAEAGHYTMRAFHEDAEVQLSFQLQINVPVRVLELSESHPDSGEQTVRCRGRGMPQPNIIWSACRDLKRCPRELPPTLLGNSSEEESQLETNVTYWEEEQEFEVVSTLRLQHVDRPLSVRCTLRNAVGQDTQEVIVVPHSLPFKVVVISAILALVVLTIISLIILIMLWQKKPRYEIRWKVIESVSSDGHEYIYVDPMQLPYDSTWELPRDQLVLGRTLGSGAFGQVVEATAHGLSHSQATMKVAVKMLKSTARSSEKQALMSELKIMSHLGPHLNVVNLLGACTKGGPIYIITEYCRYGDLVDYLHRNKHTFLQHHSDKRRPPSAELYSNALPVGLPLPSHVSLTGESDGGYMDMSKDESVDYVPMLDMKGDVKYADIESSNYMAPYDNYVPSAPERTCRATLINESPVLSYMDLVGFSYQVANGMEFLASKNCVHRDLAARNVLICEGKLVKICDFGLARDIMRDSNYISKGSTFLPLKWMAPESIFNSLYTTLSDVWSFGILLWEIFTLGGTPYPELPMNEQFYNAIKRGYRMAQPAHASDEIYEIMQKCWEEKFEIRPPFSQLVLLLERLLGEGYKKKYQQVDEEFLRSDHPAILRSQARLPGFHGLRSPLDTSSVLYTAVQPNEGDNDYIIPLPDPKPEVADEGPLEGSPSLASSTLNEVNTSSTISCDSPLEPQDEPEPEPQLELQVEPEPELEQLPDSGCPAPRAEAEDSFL

VEGFR2, unphosphorylated = VEGFR2, unphosphorylated (Homo sapiens (Human), UniProt P35968); test: VEGFR ADP GLO Assay; assay type: biochemical
VEGFR2, unphosphorylated, sequence (P35968 20-1356): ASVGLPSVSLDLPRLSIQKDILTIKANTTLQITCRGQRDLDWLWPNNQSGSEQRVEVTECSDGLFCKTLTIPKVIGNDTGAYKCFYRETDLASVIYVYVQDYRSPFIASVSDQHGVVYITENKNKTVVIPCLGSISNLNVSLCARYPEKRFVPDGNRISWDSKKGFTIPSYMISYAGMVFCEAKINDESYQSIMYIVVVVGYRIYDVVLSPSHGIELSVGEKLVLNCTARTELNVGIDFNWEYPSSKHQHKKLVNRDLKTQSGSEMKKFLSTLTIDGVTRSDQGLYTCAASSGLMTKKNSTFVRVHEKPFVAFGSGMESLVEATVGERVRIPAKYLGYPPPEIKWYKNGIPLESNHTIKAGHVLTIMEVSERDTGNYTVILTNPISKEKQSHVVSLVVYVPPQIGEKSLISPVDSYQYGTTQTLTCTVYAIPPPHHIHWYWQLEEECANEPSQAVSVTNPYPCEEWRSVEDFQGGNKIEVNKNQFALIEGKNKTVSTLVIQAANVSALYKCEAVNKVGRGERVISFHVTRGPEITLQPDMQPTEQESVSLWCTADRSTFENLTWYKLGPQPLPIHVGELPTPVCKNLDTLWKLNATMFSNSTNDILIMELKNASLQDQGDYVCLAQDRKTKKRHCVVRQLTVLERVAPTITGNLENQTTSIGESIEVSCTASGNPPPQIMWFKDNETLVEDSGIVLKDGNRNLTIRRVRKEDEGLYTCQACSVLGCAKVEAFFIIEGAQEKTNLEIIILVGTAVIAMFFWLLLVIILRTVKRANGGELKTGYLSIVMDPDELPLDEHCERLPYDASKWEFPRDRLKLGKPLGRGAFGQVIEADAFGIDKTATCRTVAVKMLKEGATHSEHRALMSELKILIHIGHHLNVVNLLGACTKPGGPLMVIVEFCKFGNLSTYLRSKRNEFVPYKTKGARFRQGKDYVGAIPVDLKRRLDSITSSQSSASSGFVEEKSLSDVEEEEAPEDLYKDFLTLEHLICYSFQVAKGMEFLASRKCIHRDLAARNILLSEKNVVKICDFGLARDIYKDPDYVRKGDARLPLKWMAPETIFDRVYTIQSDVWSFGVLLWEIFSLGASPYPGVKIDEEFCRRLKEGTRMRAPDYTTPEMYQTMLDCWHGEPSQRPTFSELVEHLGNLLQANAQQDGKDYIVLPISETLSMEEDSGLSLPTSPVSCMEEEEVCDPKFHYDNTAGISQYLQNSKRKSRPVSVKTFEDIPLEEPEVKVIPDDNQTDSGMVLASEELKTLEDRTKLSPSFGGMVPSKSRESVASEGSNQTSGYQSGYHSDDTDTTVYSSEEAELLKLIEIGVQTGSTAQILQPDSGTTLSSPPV

His6-TEV-PDGFRβ (557-1016), sequence (P09619 557-1016): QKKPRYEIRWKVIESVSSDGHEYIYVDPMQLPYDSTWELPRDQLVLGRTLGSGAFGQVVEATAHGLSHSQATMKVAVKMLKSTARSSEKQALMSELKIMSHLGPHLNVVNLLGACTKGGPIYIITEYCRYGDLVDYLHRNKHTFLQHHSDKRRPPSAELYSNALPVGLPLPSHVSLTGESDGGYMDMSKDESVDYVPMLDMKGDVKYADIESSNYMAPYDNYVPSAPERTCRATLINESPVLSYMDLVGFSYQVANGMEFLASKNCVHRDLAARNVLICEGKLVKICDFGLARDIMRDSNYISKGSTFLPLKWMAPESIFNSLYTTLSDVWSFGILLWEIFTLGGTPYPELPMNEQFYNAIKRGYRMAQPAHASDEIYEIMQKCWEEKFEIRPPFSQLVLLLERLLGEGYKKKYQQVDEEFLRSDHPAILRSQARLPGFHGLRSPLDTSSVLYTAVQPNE

Row | Compound | IC50 [1] | IC50 [2] | IC50 (VEGFR2, unphosphorylated)
1 | Cc1ncc(C(=O)NCCN2CCCC2(C)C)cc1NC(=O)c1cnn2cc(-c3cnn(CCO)c3)sc12 [Example 140, N-(5-((2-(2,2-dimethylpyrrolidin-1-yl)ethyl)carbamoyl)-2-methylpyridin-3-yl)-2-(1-(2-hydroxyethyl)-1H-pyrazol-4-yl)pyrazolo[5,1-b]thiazole-7-carboxamide] | 0.5 nM | 4.9 nM | > 7500 nM
2 | COCCn1cc(-c2cn3ncc(C(=O)Nc4cc(C(=O)NCCN5CC6CCC5CC6)cnc4C)c3s2)cn1 [Example 142, N-(5-((2-(2-azabicyclo[2.2.2]octan-2-yl)ethyl)carbamoyl)-2-methylpyridin-3-yl)-2-(1-(2-methoxyethyl)-1H-pyrazol-4-yl)pyrazolo[5,1-b]thiazole-7-carboxamide] | 0.5 nM | 4.2 nM | > 7500 nM
3 | COCCN(CCNC(=O)c1cnc(C)c(NC(=O)c2cnn3cc(-c4cnn(C)c4)sc23)c1)C(C)C [Example 127, N-(5-((2-(isopropyl(2-methoxyethyl)amino)ethyl)carbamoyl)-2-methylpyridin-3-yl)-2-(1-methyl-1H-pyrazol-4-yl)pyrazolo[5,1-b]thiazole-7-carboxamide] | 0.6 nM | 6 nM | > 7500 nM
4 | Cc1ncc(C(=O)NCCN2CCCC2(C)C)cc1NC(=O)c1cnn2cc(-c3ccncc3)sc12 [Example 7, N-(5-((2-(2,2-dimethylpyrrolidin-1-yl)ethyl)carbamoyl)-2-methyl-pyridin-3-yl)-2-(pyridin-4-yl)pyrazolo[5,1-b]thiazole-7-carboxamide] | 0.5 nM | 8.3 nM | > 7500 nM
5 | Cc1ncc(C(=O)NCCN2CC3CCC2CC3)cc1NC(=O)c1cnn2cc(-c3cccnc3)sc12 [Example 149, N-(5-((2-(2-azabicyclo[2.2.2]octan-2-yl)ethyl)carbamoyl)-2-methylpyridin-3-yl)-2-(pyridin-3-yl)pyrazolo[5,1-b]thiazole-7-carboxamide] | 0.3 nM | 5 nM | > 7500 nM
6 | Cc1ncc(C(=O)NCCN2CC3CCC2CC3)cc1NC(=O)c1cnn2cc(-c3cnn(C4COC4)c3)sc12 [Example 144, N-(5-((2-(2-azabicyclo[2.2.2]octan-2-yl)ethyl)carbamoyl)-2-methylpyridin-3-yl)-2-(1-(oxetan-3-yl)-1H-pyrazol-4-yl)pyrazolo[5,1-b]thiazole-7-carboxamide] | 0.3 nM | 3.6 nM | > 7500 nM
7 | Cc1ncc(C(=O)NCCN2CC(F)(F)C2)cc1NC(=O)c1cnn2cc(-c3ccncc3)sc12 [Example 152, N-(5-((2-(3,3-difluoroazetidin-1-yl)ethyl)carbamoyl)-2-methylpyridin-3-yl)-2-(pyridin-4-yl)pyrazolo[5,1-b]thiazole-7-carboxamide] | 0.4 nM | 12.4 nM | > 7500 nM
8 | Cc1ncc(C(=O)NCCN2CCC23CCC3)cc1NC(=O)c1cnn2cc(-c3cn(C)nc3C)sc12 [Example 175, N-(5-((2-(1-azaspiro[3.3]heptan-1-yl)ethyl)carbamoyl)-2-methylpyridin-3-yl)-2-(1,3-dimethyl-1H-pyrazol-4-yl)pyrazolo[5,1-b]thiazole-7-carboxamide] | 0.5 nM | 3.8 nM | > 7500 nM
9 | Cc1ncc(C(=O)NCCN2CCCC23COC3)cc1NC(=O)c1cnn2cc(-c3c(C)nn(C)c3C)sc12 [Example 179, N-(5-((2-(2-oxa-5-azaspiro[3.4]octan-5-yl)ethyl)carbamoyl)-2-methylpyridin-3-yl)-2-(1,3,5-trimethyl-1H-pyrazol-4-yl)pyrazolo[5,1-b]thiazole-7-carboxamide] | 1 nM | 6.9 nM | > 7500 nM
10 | COCCn1nc(C)c(-c2cn3ncc(C(=O)Nc4cc(NC(=O)CCN5CC6CCC(C5)O6)cnc4C)c3s2)c1C [Example 102, N-(5-(3-(8-oxa-3-azabicyclo[3.2.1]octan-3-yl)propanamido)-2-methylpyridin-3-yl)-2-(1-(2-methoxyethyl)-3,5-dimethyl-1H-pyrazol-4-yl)pyrazolo[5,1-b]thiazole-7-carboxamide] | 1.3 nM | 1 nM | > 7500 nM
11 | Cc1ncc(C(=O)NCCN2CCCOCC2)cc1NC(=O)c1cnn2cc(-c3cnn(C)c3)sc12 [Example 121, N-(5-((2-(1,4-oxazepan-4-yl)ethyl)carbamoyl)-2-methylpyridin-3-yl)-2-(1-methyl-1H-pyrazol-4-yl)pyrazolo[5,1-b]thiazole-7-carboxamide] | 0.4 nM | 13.1 nM | > 7500 nM
12 | Cc1ncc(C(=O)NCCN2CCCC23COC3)cc1NC(=O)c1cnn2cc(-c3cn(C)nc3C)sc12 [Example 176, N-(5-((2-(2-oxa-5-azaspiro[3.4]octan-5-yl)ethyl)carbamoyl)-2-methylpyridin-3-yl)-2-(1,3-dimethyl-1H-pyrazol-4-yl)pyrazolo[5,1-b]thiazole-7-carboxamide] | 0.5 nM | 3.1 nM | > 7500 nM
13 | Cc1ncc(C(=O)NCCN2CC3CCC2CC3)cc1NC(=O)c1cnn2cc(-c3cnn(C)c3C)sc12 [Example 171, N-(5-((2-(2-azabicyclo[2.2.2]octan-2-yl)ethyl)carbamoyl)-2-methylpyridin-3-yl)-2-(1,5-dimethyl-1H-pyrazol-4-yl)pyrazolo[5,1-b]thiazole-7-carboxamide] | 0.3 nM | 2.6 nM | > 7500 nM
14 | Cc1ncc(C(=O)NCCN2CCC(F)(F)C2)cc1NC(=O)c1cnn2cc(-c3cnn(C)c3)sc12 [Example 120, N-(5-((2-(3,3-difluoropyrrolidin-1-yl)ethyl)carbamoyl)-2-methylpyridin-3-yl)-2-(1-methyl-1H-pyrazol-4-yl)pyrazolo[5,1-b]thiazole-7-carboxamide] | 0.4 nM | 4.5 nM | > 7500 nM
15 | Cc1ncc(C(=O)NCCN2CC(F)(F)C2)cc1NC(=O)c1cnn2cc(-c3cnn(C)c3)sc12 [Example 125, N-(5-((2-(3,3-difluoroazetidin-1-yl)ethyl)carbamoyl)-2-methylpyridin-3-yl)-2-(1-methyl-1H-pyrazol-4-yl)pyrazolo[5,1-b]thiazole-7-carboxamide] | 0.3 nM | 5.3 nM | > 7500 nM
16 | Cc1ncc(NC(=O)NCC2CCN(C)CC2)cc1NC(=O)c1cnn2cc(-c3cnn(C)c3)sc12 [Example 107, 2-(1-methyl-1H-pyrazol-4-yl)-N-(2-methyl-5-(3-((1-methylpiperidin-4-yl)methyl)ureido)pyridin-3-yl)pyrazolo[5,1-b]thiazole-7-carboxamide] | 13.2 nM | 582 nM | > 7500 nM
17 | COCCn1nc(C)c(-c2cn3ncc(C(=O)Nc4cc(NC(=O)CCN5CCC6(CC6)C5)cnc4C)c3s2)c1C [Example 103, N-(5-(3-(5-azaspiro[2.4]heptan-5-yl)propanamido)-2-methylpyridin-3-yl)-2-(1-(2-methoxyethyl)-3,5-dimethyl-1H-pyrazol-4-yl)pyrazolo[5,1-b]thiazole-7-carboxamide] | 0.8 nM | 8.6 nM | > 7500 nM
18 | CC(=O)Nc1cncc(-c2cn3ncc(C(=O)Nc4cc(C(=O)NCCN5CC6CCC5CC6)cnc4C)c3s2)c1 [Example 147, N-(5-((2-(2-azabicyclo[2.2.2]octan-2-yl)ethyl)carbamoyl)-2-methylpyridin-3-yl)-2-(5-acetamidopyridin-3-yl)pyrazolo[5,1-b]thiazole-7-carboxamide] | 0.8 nM | 6.9 nM | > 7500 nM
